Measured values as given in PubChem BioAssay (NCI).
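A five-concentration, 48-hour dose response in 96-well plates underlies each endpoint, interpolated linearly between surrounding concentrations. At the GI50, growth is halved. Definition used: TGI = concentration required for complete inhibition of growth.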

Assays:
Experiment in all cases: growth of human tumour cells (NCI), 48 h
[1] = tested on: DU-145 prostate
[2] = tested on: K-562 leukemia
[3] = tested on: NCI-H522 lung
[4] = tested on: 786-0 renal
[5] = tested on: U251 CNS
[6] = tested on: A549 NSCLC
[7] = tested on: HT29 colon
[8] = tested on: UACC-62 melanoma
[9] = tested on: KM12 colon
[10] = tested on: TK-10 renal
[11] = tested on: HL-60(TB) leukemia
[12] = tested on: ACHN renal
[13] = tested on: SK-MEL-28 melanoma
[14] = tested on: CAKI-1 renal
[15] = tested on: SNB-19 CNS
[16] = tested on: MDA-MB-435
[17] = tested on: SK-MEL-5 melanoma
[18] = tested on: MDA-MB-231 breast
[19] = tested on: NCI-H460 lung
[20] = tested on: HOP-62 NSCLC
[21] = tested on: LOX IMVI melanoma
[22] = tested on: COLO 205 colon
[23] = tested on: UACC-257 melanoma
[24] = tested on: MOLT-4 leukemia
[25] = tested on: HOP-92 NSCLC
[26] = tested on: SNB-75 CNS
[27] = tested on: MALME-3M melanoma
[28] = tested on: SF-539 CNS
[29] = tested on: SF-295 CNS
[30] = tested on: OVCAR-3 ovarian
[31] = tested on: NCI/ADR-RES ovarian
[32] = tested on: SR leukemia
[33] = tested on: BT-549 breast
[34] = tested on: HS 578T breast
[35] = tested on: SW-620 colon
[36] = tested on: RPMI-8226 leukemia
[37] = tested on: MDA-N
[38] = tested on: SK-OV-3 ovarian
[39] = tested on: OVCAR-8 ovarian
[40] = tested on: A498 renal
[41] = tested on: HCT-116 colon
[42] = tested on: SK-MEL-2 melanoma
[43] = tested on: EKVX NSCLC
[44] = tested on: SF-268 CNS
[45] = tested on: OVCAR-5 ovarian
[46] = tested on: M14 melanoma
[47] = tested on: RXF 393 renal
[48] = tested on: OVCAR-4 ovarian
[49] = tested on: NCI-H23 lung
[50] = tested on: SN12C renal
[51] = tested on: HCC-2998 colon
[52] = tested on: PC-3 prostate
[53] = tested on: CCRF-CEM leukemia
[54] = tested on: NCI-H226 lung
[55] = tested on: T-47D breast
[56] = tested on: HCT-15 colon
[57] = tested on: IGROV1 ovarian
[58] = tested on: MCF7 breast
[59] = tested on: UO-31 renal

OC(CC(CC(O)(C(F)(F)F)C(F)(F)F)=NN=C(CC(O)(C(F)(F)F)C(F)(F)F)CC(O)(C(F)(F)F)C(F)(F)F)(C(F)(F)F)C(F)(F)F
TGI [1]: > 10 µM
TGI [2]: > 10 µM
TGI [3]: > 10 µM
TGI [4]: > 10 µM
TGI [5]: > 10 µM
TGI [6]: > 10 µM
TGI [7]: > 10 µM
TGI [8]: > 10 µM
TGI [9]: > 10 µM
TGI [10]: > 10 µM
TGI [11]: > 10 µM
TGI [12]: > 10 µM
TGI [13]: > 10 µM
TGI [14]: > 10 µM
TGI [15]: > 10 µM
TGI [16]: > 10 µM
TGI [17]: > 10 µM
TGI [18]: > 10 µM
TGI [19]: > 10 µM
TGI [20]: > 10 µM
TGI [21]: > 10 µM
TGI [22]: > 10 µM
TGI [23]: > 10 µM
TGI [24]: > 10 µM
TGI [25]: > 10 µM
TGI [26]: > 10 µM
TGI [27]: > 10 µM
TGI [28]: > 10 µM
TGI [29]: > 10 µM
TGI [30]: > 10 µM
TGI [31]: > 10 µM
TGI [32]: > 10 µM
TGI [33]: > 10 µM
TGI [34]: > 10 µM
TGI [35]: > 10 µM
TGI [36]: > 10 µM
TGI [37]: > 10 µM
TGI [38]: > 10 µM
TGI [39]: > 10 µM
TGI [40]: > 10 µM
TGI [41]: > 10 µM
TGI [42]: > 10 µM
TGI [43]: > 10 µM
TGI [44]: > 10 µM
TGI [45]: > 10 µM
TGI [46]: > 10 µM
TGI [47]: > 10 µM
TGI [48]: > 10 µM
TGI [49]: > 10 µM
TGI [50]: > 10 µM
TGI [51]: > 10 µM
TGI [52]: > 10 µM
TGI [53]: > 10 µM
TGI [54]: > 10 µM
TGI [55]: > 10 µM
TGI [56]: > 10 µM
TGI [57]: > 10 µM
TGI [58]: > 10 µM

CCOC(=O)[C@@H]1[C@@H]2NC(=O)N[C@@]1(C)Oc1ccccc12
TGI [1]: > 100 µM
TGI [2]: > 100 µM
TGI [3]: > 100 µM
TGI [4]: > 100 µM
TGI [5]: > 100 µM
TGI [7]: > 100 µM
TGI [8]: > 100 µM
TGI [9]: > 100 µM
TGI [10]: > 100 µM
TGI [11]: > 100 µM
TGI [12]: > 100 µM
TGI [13]: > 100 µM
TGI [14]: > 100 µM
TGI [15]: > 100 µM
TGI [16]: > 100 µM
TGI [17]: > 100 µM
TGI [18]: > 100 µM
TGI [19]: > 100 µM
TGI [20]: > 100 µM
TGI [59]: > 100 µM
TGI [21]: > 100 µM
TGI [22]: > 100 µM
TGI [23]: > 100 µM
TGI [24]: > 100 µM
TGI [25]: > 100 µM
TGI [26]: > 100 µM
TGI [27]: > 100 µM
TGI [28]: > 100 µM
TGI [29]: > 100 µM
TGI [30]: > 100 µM
TGI [31]: > 100 µM
TGI [32]: > 100 µM
TGI [33]: > 100 µM
TGI [34]: > 100 µM
TGI [35]: > 100 µM
TGI [36]: > 100 µM
TGI [37]: > 100 µM
TGI [38]: > 100 µM
TGI [39]: > 100 µM
TGI [40]: > 100 µM
TGI [41]: > 100 µM
TGI [42]: > 100 µM
TGI [43]: > 100 µM
TGI [44]: > 100 µM
TGI [45]: > 100 µM
TGI [46]: > 100 µM
TGI [47]: > 100 µM
TGI [48]: > 100 µM
TGI [49]: > 100 µM
TGI [50]: > 100 µM
TGI [51]: > 100 µM
TGI [52]: > 100 µM
TGI [53]: > 100 µM
TGI [54]: > 100 µM
TGI [55]: > 100 µM
TGI [56]: > 100 µM
TGI [57]: > 100 µM
TGI [58]: > 100 µM

CNC(=S)/C(C#N)=C(\N)N1CCN(C)CC1
TGI [1]: > 100 µM
TGI [2]: > 100 µM
TGI [3]: > 100 µM
TGI [4]: > 100 µM
TGI [5]: > 100 µM
TGI [6]: > 100 µM
TGI [7]: > 100 µM
TGI [8]: > 100 µM
TGI [9]: > 100 µM
TGI [10]: > 100 µM
TGI [11]: > 100 µM
TGI [12]: > 100 µM
TGI [14]: > 100 µM
TGI [15]: > 100 µM
TGI [16]: > 100 µM
TGI [17]: > 100 µM
TGI [18]: > 100 µM
TGI [20]: > 100 µM
TGI [59]: > 100 µM
TGI [21]: > 100 µM
TGI [22]: > 100 µM
TGI [23]: > 100 µM
TGI [24]: > 100 µM
TGI [25]: > 100 µM
TGI [26]: > 100 µM
TGI [27]: > 100 µM
TGI [28]: > 100 µM
TGI [29]: > 100 µM
TGI [30]: > 100 µM
TGI [31]: > 100 µM
TGI [32]: > 100 µM
TGI [33]: > 100 µM
TGI [34]: > 100 µM
TGI [35]: > 100 µM
TGI [36]: > 100 µM
TGI [37]: > 100 µM
TGI [38]: > 100 µM
TGI [39]: > 100 µM
TGI [40]: > 100 µM
TGI [41]: > 100 µM
TGI [42]: > 100 µM
TGI [43]: > 100 µM
TGI [44]: > 100 µM
TGI [45]: > 100 µM
TGI [46]: > 100 µM
TGI [47]: > 100 µM
TGI [49]: > 100 µM
TGI [50]: > 100 µM
TGI [51]: > 100 µM
TGI [52]: > 100 µM
TGI [53]: > 100 µM
TGI [54]: > 100 µM
TGI [55]: > 100 µM
TGI [56]: > 100 µM
TGI [57]: > 100 µM
TGI [58]: > 100 µM

CCCCOC(=O)CC(CC(=O)OCCCC)(OC(C)=O)C(=O)OCCCC
TGI [1]: > 200 µM
GI50 [2]: 53.2 µM
TGI [2]: > 200 µM
TGI [3]: > 200 µM
TGI [4]: > 200 µM
GI50 [5]: 92.6 µM
TGI [5]: > 200 µM
TGI [6]: > 200 µM
GI50 [7]: 68.8 µM
TGI [7]: > 200 µM
TGI [8]: > 200 µM
TGI [9]: > 200 µM
TGI [10]: > 200 µM
GI50 [11]: 49.1 µM
TGI [11]: > 179 µM
TGI [12]: > 200 µM
TGI [13]: > 200 µM
TGI [14]: > 200 µM
TGI [15]: > 200 µM
TGI [16]: > 200 µM
GI50 [17]: 28.4 µM
TGI [17]: > 200 µM
TGI [18]: > 200 µM
TGI [19]: > 200 µM
TGI [20]: > 200 µM
TGI [59]: 98.2 µM
GI50 [21]: 40.5 µM
TGI [21]: > 200 µM
TGI [22]: > 200 µM
TGI [23]: > 200 µM
GI50 [24]: 24.8 µM
TGI [24]: > 200 µM
TGI [25]: > 200 µM
TGI [26]: 56.4 µM
TGI [27]: > 200 µM
GI50 [29]: 54.3 µM
TGI [29]: > 200 µM
TGI [30]: > 200 µM
GI50 [31]: 74.2 µM
TGI [31]: > 200 µM
GI50 [32]: 32.2 µM
TGI [32]: > 50.7 µM
TGI [33]: > 200 µM
TGI [34]: > 200 µM
TGI [35]: > 200 µM
GI50 [36]: 29.2 µM
TGI [36]: 123 µM
TGI [37]: > 200 µM
TGI [38]: > 200 µM
TGI [39]: > 200 µM
TGI [40]: > 200 µM
GI50 [41]: 70.9 µM
TGI [41]: > 200 µM
TGI [42]: > 200 µM
TGI [43]: > 200 µM
TGI [44]: > 200 µM
TGI [45]: > 200 µM
TGI [46]: > 200 µM
GI50 [47]: 96 µM
TGI [47]: > 124 µM
GI50 [48]: 69.1 µM
TGI [48]: > 200 µM
TGI [49]: > 200 µM
TGI [50]: > 200 µM
TGI [51]: > 200 µM
GI50 [52]: 86.5 µM
TGI [52]: > 200 µM
TGI [53]: > 200 µM
GI50 [54]: 55.6 µM
TGI [54]: 198 µM
GI50 [55]: 26.4 µM
TGI [55]: > 200 µM
TGI [56]: > 200 µM
TGI [57]: > 200 µM
TGI [58]: > 200 µM
